# Data from ChEMBL document CHEMBL3885861, “Open TG-GATES”.
# Species on record: Rattus norvegicus
# Assay: Open TG-GATES - Regimen: Daily Repeat
# Type: toxicity, organism-based, Sprague-Dawley
# Set-up: regimen Daily Repeat, gender Male, age 6 weeks
# Details: in vivo, po, route gavage; for GLC / IP / K / LDH / Na / PL / RALB / TBIL / TC / TG / TP / gamma-GTP / A/G / ALP / ALT / AST / BUN / CRE / Ca / Cl / DBIL: tissue Plasma; for APTT / Bas / Eos / Fbg / Hb / Ht / Lym / MCH / MCHC / MCV / Mono / Neu / PT / Plat / RBC / Ret / WBC: tissue Blood; for KIDNEY_L / KIDNEY_R / KIDNEY_TOTAL: tissue Kidney; for LIVER: tissue Liver
# [1] = 10 mg/kg, […], dose level Middle, time 14 day
# [2] = 10 mg/kg, […], dose level Middle, time 28 day
# [3] = 30 mg/kg, 72 h, dose level High, time 3 day
# [4] = 30 mg/kg, […], dose level High, time 7 day
# [5] = 30 mg/kg, […], dose level High, time 14 day
smiles,measurement,setting,value
CCN(CC)N=O [N-NITROSODIETHYLAMINE],GLC,[1],180 mg/dL
same,IP,[1],7 mg/dL
same,K,[1],3.8 meq/L
same,LDH,[1],259 IU/L
same,Na,[1],140.2 meq/L
same,PL,[1],140.2 mg/dL
same,RALB,[1],3.4 g/dL
same,TBIL,[1],0.2 mg/dL
same,TC,[1],70.4 mg/dL
same,TG,[1],67.6 mg/dL
same,TP,[1],5.5 g/dL
same,gamma-GTP,[1],2.2 IU/L
same,A/G,[2],1.7
same,ALP,[2],1261.4 IU/L
same,ALT,[2],69 IU/L
same,AST,[2],110.4 IU/L
same,BUN,[2],15 mg/dL
same,CRE,[2],0.5 mg/dL
same,Ca,[2],9.9 mg/dL
same,Cl,[2],103.6 meq/L
same,DBIL,[2],0.1 mg/dL
same,GLC,[2],165.8 mg/dL
same,IP,[2],5.9 mg/dL
same,K,[2],3.5 meq/L
same,LDH,[2],242 IU/L
same,Na,[2],140.6 meq/L
same,PL,[2],146.2 mg/dL
same,RALB,[2],3.3 g/dL
same,TBIL,[2],0.2 mg/dL
same,TC,[2],70.8 mg/dL
same,TG,[2],79.2 mg/dL
same,TP,[2],5.3 g/dL
same,gamma-GTP,[2],3.2 IU/L
same,TERMINAL_BW,[3],209.6 g
same,APTT,[3],17.1 s
same,Bas,[3],0.6%
same,Eos,[3],1.4%
same,Fbg,[3],211.6 mg/dL
same,Hb,[3],15.6 g/dL
same,Ht,[3],44.7%
same,Lym,[3],81.2%
same,MCH,[3],21.3 pg
same,MCHC,[3],34.8%
same,MCV,[3],61.1 fL
same,Mono,[3],3.4%
same,Neu,[3],12.6%
same,PT,[3],14.2 s
same,Plat,[3],134.9 x10_4/uL
same,RBC,[3],732.4 x10_4/ul
same,Ret,[3],4%
same,WBC,[3],84.6 x10_2/uL
same,KIDNEY_L,[3],1 g
same,KIDNEY_R,[3],0.9 g
same,KIDNEY_TOTAL,[3],1.9 g
same,LIVER,[3],7.6 g
same,A/G,[3],1.8
same,ALP,[3],979.2 IU/L
same,ALT,[3],64.4 IU/L
same,AST,[3],196.8 IU/L
same,BUN,[3],12.4 mg/dL
same,CRE,[3],0.4 mg/dL
same,Ca,[3],10.4 mg/dL
same,Cl,[3],103.2 meq/L
same,DBIL,[3],0.1 mg/dL
same,GLC,[3],174.6 mg/dL
same,IP,[3],7.5 mg/dL
same,K,[3],4 meq/L
same,LDH,[3],316.8 IU/L
same,Na,[3],140.4 meq/L
same,PL,[3],135.8 mg/dL
same,RALB,[3],3.4 g/dL
same,TBIL,[3],0.2 mg/dL
same,TC,[3],80.6 mg/dL
same,TG,[3],59.4 mg/dL
same,TP,[3],5.2 g/dL
same,gamma-GTP,[3],1.6 IU/L
same,TERMINAL_BW,[4],200.4 g
same,TERMINAL_BW,[5],195.1 g
same,APTT,[4],21.4 s
same,Bas,[4],1%
same,Eos,[4],1%
same,Fbg,[4],153.6 mg/dL
same,Hb,[4],17.4 g/dL
same,Ht,[4],49%
same,Lym,[4],76%
same,MCH,[4],21.1 pg
same,MCHC,[4],35.6%
same,MCV,[4],59.2 fL
same,Mono,[4],4.4%
same,Neu,[4],17.4%
same,PT,[4],19.5 s
same,Plat,[4],126.6 x10_4/uL
same,RBC,[4],827 x10_4/ul
same,Ret,[4],1.6%
same,WBC,[4],117.4 x10_2/uL
same,APTT,[5],87.2 s
same,Bas,[5],1%
same,Eos,[5],0%
same,Fbg,[5],66 mg/dL
same,Hb,[5],16.7 g/dL
same,Ht,[5],48.8%
same,Lym,[5],26%
same,MCH,[5],20.7 pg
same,MCHC,[5],34.2%
same,MCV,[5],60.5 fL
same,Mono,[5],7%
same,Neu,[5],65%
same,PT,[5],63.4 s
same,Plat,[5],112.1 x10_4/uL
same,RBC,[5],807 x10_4/ul
same,Ret,[5],3.6%
same,WBC,[5],108.1 x10_2/uL
same,KIDNEY_L,[4],0.9 g
same,KIDNEY_R,[4],0.9 g
same,KIDNEY_TOTAL,[4],1.8 g
same,KIDNEY_L,[5],1.2 g
same,KIDNEY_R,[5],1.2 g
same,KIDNEY_TOTAL,[5],2.4 g
same,LIVER,[4],4.6 g
same,LIVER,[5],2.7 g
same,A/G,[4],2
same,ALP,[4],1514 IU/L
same,ALT,[4],160.2 IU/L
same,AST,[4],315.6 IU/L
same,BUN,[4],12.6 mg/dL
same,CRE,[4],0.4 mg/dL
same,Ca,[4],9.6 mg/dL
same,Cl,[4],104.2 meq/L
same,DBIL,[4],0.7 mg/dL
same,GLC,[4],140.4 mg/dL
same,IP,[4],7 mg/dL
same,K,[4],3.9 meq/L
same,LDH,[4],465.4 IU/L
same,Na,[4],138.6 meq/L
same,PL,[4],171 mg/dL
same,RALB,[4],2.9 g/dL
same,TBIL,[4],0.9 mg/dL
same,TC,[4],109 mg/dL
same,TG,[4],27.4 mg/dL
same,TP,[4],4.4 g/dL
same,gamma-GTP,[4],9.2 IU/L
same,A/G,[5],2.8
same,ALP,[5],1357 IU/L
same,ALT,[5],206 IU/L
same,AST,[5],748 IU/L
same,BUN,[5],47 mg/dL
same,CRE,[5],0.7 mg/dL
same,Ca,[5],9.4 mg/dL
same,Cl,[5],90 meq/L
same,DBIL,[5],4.2 mg/dL
same,GLC,[5],61 mg/dL
same,IP,[5],9.2 mg/dL
same,K,[5],4.5 meq/L
same,LDH,[5],983 IU/L
same,Na,[5],130 meq/L
same,PL,[5],245 mg/dL
same,RALB,[5],2.2 g/dL
same,TBIL,[5],5.1 mg/dL
same,TC,[5],231 mg/dL
same,TG,[5],88 mg/dL
same,TP,[5],3 g/dL
same,gamma-GTP,[5],16 IU/L
